Among the data in patent US20240158418A1 (C4 Therapeutics, Inc., priority 2021, published 2024) are DC50 values, retold here.

For the first assay, the target named is T1, EGFR L858R-T790M (Homo sapiens, UniProt P00533, L858R/T790M).
T1 construct: NCI-H1975 (harboring EGFR heterozygous L858R-T790M mutations); host or cells: NCI-H1975
T1 sequence (P00533 25-1210 T790M/L858R): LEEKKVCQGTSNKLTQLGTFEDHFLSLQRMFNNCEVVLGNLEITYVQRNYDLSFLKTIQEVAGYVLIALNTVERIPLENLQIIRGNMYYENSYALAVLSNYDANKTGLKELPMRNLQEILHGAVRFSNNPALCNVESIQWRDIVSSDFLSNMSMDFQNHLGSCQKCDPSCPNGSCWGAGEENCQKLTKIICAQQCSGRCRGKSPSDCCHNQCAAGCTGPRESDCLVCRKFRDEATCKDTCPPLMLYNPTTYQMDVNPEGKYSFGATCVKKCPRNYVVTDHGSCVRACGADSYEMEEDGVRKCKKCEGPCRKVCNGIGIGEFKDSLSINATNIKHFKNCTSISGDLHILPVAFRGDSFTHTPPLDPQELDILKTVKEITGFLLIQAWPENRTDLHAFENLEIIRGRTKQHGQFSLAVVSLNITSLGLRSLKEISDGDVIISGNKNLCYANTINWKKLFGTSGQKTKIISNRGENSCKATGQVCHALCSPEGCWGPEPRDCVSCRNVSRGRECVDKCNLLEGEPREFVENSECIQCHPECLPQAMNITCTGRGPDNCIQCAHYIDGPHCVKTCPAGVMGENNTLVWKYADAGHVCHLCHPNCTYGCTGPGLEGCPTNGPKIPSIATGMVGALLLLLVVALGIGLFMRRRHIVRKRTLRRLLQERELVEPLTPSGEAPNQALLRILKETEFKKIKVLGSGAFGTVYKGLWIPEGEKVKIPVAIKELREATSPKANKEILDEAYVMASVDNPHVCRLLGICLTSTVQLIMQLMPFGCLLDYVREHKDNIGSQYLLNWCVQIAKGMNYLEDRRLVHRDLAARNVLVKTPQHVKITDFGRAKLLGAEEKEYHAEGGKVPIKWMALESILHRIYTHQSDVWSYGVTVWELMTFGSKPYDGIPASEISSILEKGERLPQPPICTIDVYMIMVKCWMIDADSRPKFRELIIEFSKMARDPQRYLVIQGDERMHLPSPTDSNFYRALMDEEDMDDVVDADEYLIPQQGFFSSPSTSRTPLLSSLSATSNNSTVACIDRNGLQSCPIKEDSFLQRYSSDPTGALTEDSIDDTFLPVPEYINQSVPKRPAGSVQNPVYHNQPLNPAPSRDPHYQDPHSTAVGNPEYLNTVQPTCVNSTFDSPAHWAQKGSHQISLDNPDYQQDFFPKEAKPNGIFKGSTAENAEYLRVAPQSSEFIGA
Put plainly: EGFR degradation, Total EGFR (L858R-specific) HTRF, NCI-H1975. It counts as cell-based. As to conditions: Table 9A; NCI-H1975 cells, 6 hours, Total EGFR HTRF; read-out: H1975 EGFR DC50. Summed up: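 FRET signal from HTRF kits measured phospho-EGFR at pY1068 or total EGFR after 6 h treatment at 37 °C. Compounds ran as 11-point half-log dilutions from 10 μM in duplicate, in cells in phenol red-free RPMI with 10% FBS. Concentrations giving 50% inhibition or degradation were reported as IC50 or DC50.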
In general terms: Time-resolved FRET reads energy transfer from a long-lived donor to a nearby acceptor.
As for `Cn1nc(N2CCC(=O)NC2=O)c2ccc(C3CCN(CC(=O)N4CC5(C4)CN(c4ccc(-c6cc(F)c7c(c6)C(=O)N(C(C(=O)Nc6ccccn6)c6ncn8c6CCC8)C7)cc4)C5)CC3)cc21` (stereo not shown) [Compound 54, 2-(6,7-dihydro-5H-pyrrolo[1,2-c]imidazol-1-yl)-2-[6-[4-[2-[2-[4-[3-(2,4-dioxohexahydropyrimidin-1-yl)-1-methyl-indazol-6-yl]-1-piperidyl]acetyl]-2,6-diazaspiro[3.3]heptan-6-yl]phenyl]-4-fluoro-1-oxo-isoindolin-2-yl]-N-(2-pyridyl)acetamide], the 50% degradation concentration (DC50) (commonly the midpoint of the concentration-degradation curve) is below 50 nM.

For the compound `O=C1CCC(Nc2ccc(C3CCN(CC(=O)N4CCN(c5ccc(-c6cc(F)c7cn(C(C(=O)Nc8nccs8)c8ncn9c8CCC9)nc7c6)cn5)CC4)CC3)c(F)c2)C(=O)N1` (stereo not shown) [Compound 64, 2-(6,7-dihydro-5H-pyrrolo[1,2-c]imidazol-1-yl)-2-[6-[6-[4-[2-[4-[4-[(2,6-dioxo-3-piperidyl)amino]-2-fluoro-phenyl]-1-piperidyl]acetyl]piperazin-1-yl]-3-pyridyl]-4-fluoro-indazol-2-yl]-N-thiazol-2-yl-acetamide], the DC50 lay in the range of 50 to 150 nM.

With `O=C1CCC(Nc2ccc(C3CCN(CC(=O)N4CCN(c5ccc(-c6cc(F)c7cn(C(C(=O)Nc8nccs8)c8ncn9c8CCC9)nc7c6)cn5)CC4)CC3)cc2)C(=O)N1` (stereo not shown) [Compound 65, 2-(6,7-dihydro-5H-pyrrolo[1,2-c]imidazol-1-yl)-2-[6-[6-[4-[2-[4-[4-[(2,6-dioxo-3-piperidyl)amino]phenyl]-1-piperidyl]acetyl]piperazin-1-yl]-3-pyridyl]-4-fluoro-indazol-2-yl]-N-thiazol-2-yl-acetamide], the DC50 is below 50 nM.

The same assay, now with this note: Table 9B; NCI-H1975 cells, 6 hours, Total EGFR HTRF; read-out: H1975 EGFR DC50.
With `O=C1CCC(Nc2ccc(N3CCC(O)(CC(=O)N4CC5(C4)CN(c4ccc(-c6ccc7cn(C(C(=O)Nc8nccs8)c8ncn9c8CCC9)nc7c6F)cn4)C5)CC3)cc2F)C(=O)N1` (stereo not shown) [Compound 71, 2-(6,7-dihydro-5H-pyrrolo[1,2-c]imidazol-1-yl)-2-[6-[6-[2-[2-[1-[4-[(2,6-dioxo-3-piperidyl)amino]-3-fluoro-phenyl]-4-hydroxy-4-piperidyl]acetyl]-2,6-diazaspiro[3.3]heptan-6-yl]-3-pyridyl]-7-fluoro-indazol-2-yl]-N-thiazol-2-yl-acetamide], the half-maximal degradation concentration (DC50) is below 50 nM.

Take `Cn1nc(N2CCC(=O)NC2=O)c2ccc(C3CCN(CC(=O)N4CCN(c5ccc(-c6cc(F)c7cn(C(C(=O)Nc8nccs8)c8ncn9c8CCC9)nc7c6)cn5)CC4)CC3(F)F)cc21` (stereo not shown) [Compound 72, 2-(6,7-dihydro-5H-pyrrolo[1,2-c]imidazol-1-yl)-2-(6-(6-(4-(2-(4-(3-(2,4-dioxotetrahydropyrimidin-1(2H)-yl)-1-methyl-1H-indazol-6-yl)-3,3-difluoropiperidin-1-yl)acetyl)piperazin-1-yl)pyridin-3-yl)-4-fluoro-2H-indazol-2-yl)-N-(thiazol-2-yl)acetamide]: the DC50 was below 50 nM.

Consider `O=C1CCC(Nc2ccc(N3CCC(O)(CC(=O)N4CC5(C4)CN(c4ccc(-c6ccc7cn(C(C(=O)Nc8nccs8)c8ncn9c8CCC9)nc7c6F)cn4)C5)CC3)c(F)c2)C(=O)N1` (stereo not shown) [Compound 74, 2-(6,7-dihydro-5H-pyrrolo[1,2-c]imidazol-1-yl)-2-[6-[6-[2-[2-[1-[4-[(2,6-dioxo-3-piperidyl)amino]-2-fluoro-phenyl]-4-hydroxy-4-piperidyl]acetyl]-2,6-diazaspiro[3.3]heptan-6-yl]-3-pyridyl]-7-fluoro-indazol-2-yl]-N-thiazol-2-yl-acetamide], for which the DC50 is below 50 nM.

For the compound `O=C1CC[C@H](Nc2ccc(N3CCC(O)(CC(=O)N4CC5(C4)CN(c4ccc(-c6cc(F)c7cn(C(C(=O)Nc8nccs8)c8ncn9c8CCC9)nc7c6)cn4)C5)CC3)c(F)c2)C(=O)N1` (stereo partly drawn) [Compound 75, 2-(6,7-dihydro-5H-pyrrolo[1,2-c]imidazol-1-yl)-2-[6-[6-[2-[2-[1-[4-[[(3S)-2,6-dioxo-3-piperidyl]amino]-2-fluoro-phenyl]-4-hydroxy-4-piperidyl]acetyl]-2,6-diazaspiro[3.3]heptan-6-yl]-3-pyridyl]-4-fluoro-indazol-2-yl]-N-thiazol-2-yl-acetamide], the DC50 was below 50 nM.

On to `Cn1nc(N2CCC(=O)NC2=O)c2ccc([C@H]3CCN(CC(=O)N4CC5(C4)CN(c4ccc(-c6cc(F)c7cn(C(C(=O)Nc8nccs8)c8ncn9c8CCC9)nc7c6)cc4)C5)CC3(F)F)cc21` (stereo partly drawn) [Compound 76, 2-(6,7-dihydro-5H-pyrrolo[1,2-c]imidazol-1-yl)-2-(6-(4-(6-(2-((R)-4-(3-(2,4-dioxotetrahydropyrimidin-1(2H)-yl)-1-methyl-1H-indazol-6-yl)-3,3-difluoropiperidin-1-yl)acetyl)-2,6-diazaspiro[3.3]heptan-2-yl)phenyl)-4-fluoro-2H-indazol-2-yl)-N-(thiazol-2-yl)acetamide], for which the half-maximal degradation concentration (DC50) is below 50 nM.

With `O=C1CC[C@H](Nc2ccc(N3CCC(O)(CC(=O)N4CC5(C4)CN(c4ccc(-c6cc(F)c7cn(C(C(=O)Nc8nccs8)c8ncn9c8CCC9)nc7c6)cc4)C5)CC3)c(F)c2)C(=O)N1` (stereo partly drawn) [Compound 77, 2-(6,7-dihydro-5H-pyrrolo[1,2-c]imidazol-1-yl)-2-[6-[4-[2-[2-[1-[4-[[(3S)-2,6-dioxo-3-piperidyl]amino]-2-fluoro-phenyl]-4-hydroxy-4-piperidyl]acetyl]-2,6-diazaspiro[3.3]heptan-6-yl]phenyl]-4-fluoro-indazol-2-yl]-N-thiazol-2-yl-acetamide], the DC50 is below 50 nM.

Take `O=C1CC[C@H](Nc2ccc(N3CCC(O)(CC(=O)N4CC5(C4)CN(c4ccc(-c6ccc7cn(C(C(=O)Nc8nccs8)c8ncn9c8CCC9)nc7c6F)cc4)C5)CC3)c(F)c2)C(=O)N1` (stereo partly drawn) [Compound 78, 2-(6,7-dihydro-5H-pyrrolo[1,2-c]imidazol-1-yl)-2-(6-(4-(6-(2-(1-(4-(((S)-2,6-dioxopiperidin-3-yl)amino)-2-fluorophenyl)-4-hydroxypiperidin-4-yl)acetyl)-2,6-diazaspiro[3.3]heptan-2-yl)phenyl)-7-fluoro-2H-indazol-2-yl)-N-(thiazol-2-yl)acetamide]: the DC50 is below 50 nM.

As to `O=C1CC[C@H](Nc2ccc(N3CCC(O)(CC(=O)N4CCC5(CC4)CN(c4ccc(-c6cc(F)c7cn(C(C(=O)Nc8nccs8)c8ncn9c8CCC9)nc7c6)cc4)C5)CC3)c(F)c2)C(=O)N1` (stereo partly drawn) [Compound 79, 2-(6,7-dihydro-5H-pyrrolo[1,2-c]imidazol-1-yl)-2-(6-(4-(7-(2-(1-(4-(((S)-2,6-dioxopiperidin-3-yl)amino)-2-fluorophenyl)-4-hydroxypiperidin-4-yl)acetyl)-2,7-diazaspiro[3.5]nonan-2-yl)phenyl)-4-fluoro-2H-indazol-2-yl)-N-(thiazol-2-yl)acetamide], the half-maximal degradation concentration (DC50) is below 50 nM.

In the case of `O=C1CCC(Nc2ccc(-c3ccc(CC(=O)N4CCC(Oc5ccc(-c6cc(F)c7c(c6)C(=O)N(C(C(=O)Nc6nccs6)c6ncn8c6CCC8)C7)cc5)CC4)cc3)cc2)C(=O)N1` (stereo not shown) [Compound 81, 2-(6,7-dihydro-5H-pyrrolo[1,2-c]imidazol-1-yl)-2-(6-(4-((1-(2-(4′-((2,6-dioxopiperidin-3-yl)amino)-[1,1′-biphenyl]-4-yl)acetyl)piperidin-4-yl)oxy)phenyl)-4-fluoro-1-oxoisoindolin-2-yl)-N-(thiazol-2-yl)acetamide], the DC50 was in the range of 50 to 150 nM.

As to `Cn1nc(N2CCC(=O)NC2=O)c2ccc(C3CCN(CC(=O)N4C[C@H]5C[C@@H]4CN5c4ccc(-c5cc(F)c6c(c5)C(=O)N(C(C(=O)Nc5nccs5)c5ncn7c5CCC7)C6)cc4)CC3)cc21` (stereo partly drawn) [Compound 82, 2-(6,7-dihydro-5H-pyrrolo[1,2-c]imidazol-1-yl)-2-(6-(4-((1R,4R)-5-(2-(4-(3-(2,4-dioxotetrahydropyrimidin-1(2H)-yl)-1-methyl-1H-indazol-6-yl)piperidin-1-yl)acetyl)-2,5-diazabicyclo[2.2.1]heptan-2-yl)phenyl)-4-fluoro-1-oxoisoindolin-2-yl)-N-(thiazol-2-yl)acetamide], the 50% degradation concentration (DC50) is above 150 nM.

Consider `O=C1CCC(Nc2ccc(C3CCN(C(=O)CC4CCN(c5ccc(-c6cc(F)c7c(c6)C(=O)N(C(C(=O)Nc6nccs6)c6ncn8c6CCC8)C7)cc5)CC4)CC3)c(F)c2)C(=O)N1` (stereo not shown) [Compound 86, 2-(6,7-dihydro-5H-pyrrolo[1,2-c]imidazol-1-yl)-2-[6-[4-[4-[2-[4-[4-[(2,6-dioxo-3-piperidyl)amino]-2-fluoro-phenyl]-1-piperidyl]-2-oxo-ethyl]-1-piperidyl]phenyl]-4-fluoro-1-oxo-isoindolin-2-yl]-N-thiazol-2-yl-acetamide], for which the 50% degradation concentration (DC50) was in the range of 50 to 150 nM.

With `O=C1CCC(Nc2ccc(N3CCC(O)(CC(=O)N4CC5(C4)CN(c4ccc(-c6cc(F)c7c(c6)C(=O)N(C(C(=O)Nc6nccs6)c6ncn8c6CCC8)C7)cc4)C5)CC3)c(F)c2)C(=O)N1` (stereo not shown) [Compound 89, 2-(6,7-dihydro-5H-pyrrolo[1,2-c]imidazol-1-yl)-2-(6-(4-(6-(2-(1-(4-((2,6-dioxopiperidin-3-yl)amino)-2-fluorophenyl)-4-hydroxypiperidin-4-yl)acetyl)-2,6-diazaspiro[3.3]heptan-2-yl)phenyl)-4-fluoro-1-oxoisoindolin-2-yl)-N-(thiazol-2-yl)acetamide], the DC50 is below 50 nM.

Turning to `O=C1CCC(Nc2cnc(N3CCC(O)(CC(=O)N4CC5(C4)CN(c4ccc(-c6cc(F)c7c(c6)C(=O)N(C(C(=O)Nc6nccs6)c6ncn8c6CCC8)C7)cc4)C5)CC3)c(F)c2)C(=O)N1` (stereo not shown) [Compound 90, 2-(6,7-dihydro-5H-pyrrolo[1,2-c]imidazol-1-yl)-2-(6-(4-(6-(2-(1-(5-((2,6-dioxopiperidin-3-yl)amino)-3-fluoropyridin-2-yl)-4-hydroxypiperidin-4-yl)acetyl)-2,6-diazaspiro[3.3]heptan-2-yl)phenyl)-4-fluoro-1-oxoisoindolin-2-yl)-N-(thiazol-2-yl)acetamide], the half-maximal degradation concentration (DC50) was below 50 nM.
